For assay [1], the system named is HCV genotype 1a (H77 strain) replicon in HUH-7 cells. Briefly: HCV replicon luciferase reporter assay, genotype 1a. The format is cell-based. Conditions: Hepatitis C virus, Huh-7, 72 h, HCV genotype 1a replicon luciferase assay, 3 days incubation, range class, read-out: LE_1a (EC50, range). In outline:
(§1)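 Replicon inhibition for both genotypes was measured as Renilla luciferase signal (EnduRen, 7.5 μM final, 2 h) after 3-day, 37° C exposure of replicon-bearing HUH-7 cells in 4% FCS DMEM, 0.5% DMSO. The 1b construct carries S1179I; the 1a H77 construct carries P1496L and S2204I. Twenty-point, 3-fold dilutions were fitted four-parametrically for EC50, and CC50 was taken from multiplexed Cell Titer-Blue.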
Background: In antiviral work, replicon cells carry a viral genome segment that copies itself.

Assay [2] has as its system HCV genotype 1b (Con1) replicon in HUH-7 cells. Nature of the assay: HCV replicon luciferase reporter assay, genotype 1b. The format is cell-based. Conditions: Hepatitis C virus, Huh-7, 72 h, HCV genotype 1b replicon luciferase assay, 3 days incubation, range class, read-out: LE_1b (EC50, range). In outline:
as §1

A value given as a limit tells only on which side of the number the result lay.

By EC50 is commonly meant the concentration at which the effect is half-maximal. As to `COc1cc(F)cc2c(O[C@@H]3C[C@H]4C(=O)N[C@]5(C(=O)NS(=O)(=O)C6(C)CC6)C[C@H]5/C=C\CC[C@H](C)C[C@@H](C)[C@H](NC(=O)O[C@@H]5C[C@@H]6C[C@@H]6C5)C(=O)N4C3)nccc12` [Compound 3159, (1R,3r,5S)-bicyclo[3.1.0]hexan-3-yl((2R,6S,7R,9S,13aS,14aR,16aS,Z)-2-((7-fluoro-5-methoxyisoquinolin-1-yl)oxy)-7,9-dimethyl-14a-(((1-methylcyclopropyl)sulfonyl)carbamoyl)-5,16-dioxo-1,2,3,5,6,7,8,9,10,11,13a,14,14a,15,16,16a-hexadecahydrocyclopropa[e]pyrrolo[1,2-a][1,4]diazacyclopentadecin-6-yl)carbamate], the EC50 is 4.82 to 103 nM in assay [1] and less than 5.46 nM in assay [2].

In the case of `COc1cc(F)cc2c(O[C@@H]3C[C@H]4C(=O)N[C@]5(C(=O)NS(=O)(=O)C6(C)CC6)C[C@H]5/C=C\CC[C@@H](C)C[C@@H](C)[C@H](NC(=O)O[C@@H]5C[C@@H]6C[C@@H]6C5)C(=O)N4C3)nccc12` [Compound 3160, (1R,3r,5S)-bicyclo[3.1.0]hexan-3-yl((2R,6S,7R,9R,13aS,14aR,16aS,Z)-2-((7-fluoro-5-methoxyisoquinolin-1-yl)oxy)-7,9-dimethyl-14a-(((1-methylcyclopropyl)sulfonyl)carbamoyl)-5,16-dioxo-1,2,3,5,6,7,8,9,10,11,13a,14,14a,15,16,16a-hexadecahydrocyclopropa[e]pyrrolo[1,2-a][1,4]diazacyclopentadecin-6-yl)carbamate], the EC50 in assay [1] and in assay [2] was less than 5.46 nM throughout.

On to `COc1cc(F)cc2c(O[C@@H]3C[C@H]4C(=O)N[C@]5(C(=O)NS(=O)(=O)C6(C)CC6)C[C@H]5/C=C\CC[C@H](C)C[C@@H](C)[C@H](NC(=O)OCC5(C)CC5)C(=O)N4C3)nccc12` [Compound 3161, (1-methylcyclopropyl)methyl ((2R,6S,7R,9S,13aS,14aR,16aS,Z)-2-((7-fluoro-5-methoxyisoquinolin-1-yl)oxy)-7,9-dimethyl-14a-(((1-methylcyclopropyl)sulfonyl)carbamoyl)-5,16-dioxo-1,2,3,5,6,7,8,9,10,11,13a,14,14a,15,16,16a-hexadecahydrocyclopropa[e]pyrrolo[1,2-a][1,4]diazacyclopentadecin-6-yl)carbamate], for which the EC50 is 4.82 to 103 nM in assay [1] and less than 5.46 nM in assay [2].

In the case of `COc1cc(F)cc2c(O[C@@H]3C[C@H]4C(=O)N[C@]5(C(=O)NS(=O)(=O)C6(C)CC6)C[C@H]5/C=C\CC[C@@H](C)C[C@@H](C)[C@H](NC(=O)OCC5(C)CC5)C(=O)N4C3)nccc12` [Compound 3162, (1-methylcyclopropyl)methyl ((2R,6S,7R,9R,13aS,14aR,16aS,Z)-2-((7-fluoro-5-methoxyisoquinolin-1-yl)oxy)-7,9-dimethyl-14a-(((1-methylcyclopropyl)sulfonyl)carbamoyl)-5,16-dioxo-1,2,3,5,6,7,8,9,10,11,13a,14,14a,15,16,16a-hexadecahydrocyclopropa[e]pyrrolo[1,2-a][1,4]diazacyclopentadecin-6-yl)carbamate], the EC50 in assay [1] and in assay [2] was less than 5.46 nM throughout.

In the case of `COc1cc(F)cc2c(O[C@@H]3C[C@H]4C(=O)N[C@]5(C(=O)NS(=O)(=O)C6CC6)C[C@H]5/C=C\CC[C@H](C)C[C@@H](C)[C@H](NC(=O)OC(C)(C)C)C(=O)N4C3)nccc12` [Compound 3163, tert-butyl ((2R,6S,7R,9S,13aS,14aR,16aS,Z)-14a-((cyclopropylsulfonyl)carbamoyl)-2-((7-fluoro-5-methoxyisoquinolin-1-yl)oxy)-7,9-dimethyl-5,16-dioxo-1,2,3,5,6,7,8,9,10,11,13a,14,14a,15,16,16a-hexadecahydrocyclopropa[e]pyrrolo[1,2-a][1,4]diazacyclopentadecin-6-yl)carbamate], the concentration giving a half-maximal response (EC50) in assay [1] and in assay [2] was 4.82 to 103 nM each time.
